Measured values as given in patent US20240270762A1, “PENICILLIN-BINDING PROTEIN INHIBITORS” (priority 2021, published 2024).
In brackets after ≈: the same amount, converted by molar mass.

Assays:
A. baumannii PBP1a = biological target: T1, A. baumannii PBP1a (Acinetobacter baumannii, UniProt A0ABX6CK30); assay: Bocillin-FL competition binding via gel filtration, A. baumannii PBP1a; details: competition binding assay using Bocillin-FL via gel filtration; read-out: A. baumannii PBP1a Potency
T1 sequence (A0ABX6CK30 1-851): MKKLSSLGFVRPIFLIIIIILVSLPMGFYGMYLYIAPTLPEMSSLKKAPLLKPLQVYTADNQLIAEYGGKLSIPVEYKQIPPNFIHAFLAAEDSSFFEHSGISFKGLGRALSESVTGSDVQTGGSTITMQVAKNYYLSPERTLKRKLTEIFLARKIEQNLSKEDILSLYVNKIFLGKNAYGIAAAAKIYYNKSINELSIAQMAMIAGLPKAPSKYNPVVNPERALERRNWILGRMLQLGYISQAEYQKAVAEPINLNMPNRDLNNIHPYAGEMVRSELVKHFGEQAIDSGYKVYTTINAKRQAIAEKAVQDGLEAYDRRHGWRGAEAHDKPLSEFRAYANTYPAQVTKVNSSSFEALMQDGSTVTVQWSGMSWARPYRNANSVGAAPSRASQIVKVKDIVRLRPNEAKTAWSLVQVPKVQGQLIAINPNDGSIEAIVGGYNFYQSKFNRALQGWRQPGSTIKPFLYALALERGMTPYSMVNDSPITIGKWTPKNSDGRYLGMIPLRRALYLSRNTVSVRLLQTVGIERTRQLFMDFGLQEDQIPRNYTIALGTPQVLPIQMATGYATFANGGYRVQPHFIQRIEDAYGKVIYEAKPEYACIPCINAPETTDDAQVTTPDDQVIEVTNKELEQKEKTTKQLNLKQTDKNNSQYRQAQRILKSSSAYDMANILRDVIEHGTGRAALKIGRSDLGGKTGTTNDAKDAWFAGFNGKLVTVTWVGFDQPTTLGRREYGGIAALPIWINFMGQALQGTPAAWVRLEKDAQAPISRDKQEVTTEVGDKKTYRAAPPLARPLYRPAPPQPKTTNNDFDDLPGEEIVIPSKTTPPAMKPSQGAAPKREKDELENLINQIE
Procedure, shortened: (§1)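 Competitive equilibrium binding with Bocillin-FL reporter: PBP pre-incubated with inhibitor dilutions, Bocillin-FL added, 15 min incubation. Labelled enzyme isolated by size-exclusion spin plates, fluorescence measured; EC50 obtained by fitting bound fraction against inhibitor concentration with a Hill-coefficient model.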

A. baumannii PBP2 = A. baumannii PBP2 (Acinetobacter baumannii, UniProt D0C8Z9); assay: Bocillin-FL competition binding via gel filtration, A. baumannii PBP2
Procedure, shortened: as §1

A. baumannii ATCC 17978 = assay: microbe, parasite or virus in culture; format: cell-based; details: Acinetobacter baumannii, ATCC17978, read-out: MIC, A. baumannii ATCC 17978
A. baumannii ATCC 19606 = assay: microbe, parasite or virus in culture; format: cell-based; details: Acinetobacter baumannii, ATCC19606, read-out: MIC, A. baumannii ATCC 19606
P. aeruginosa ATCC 35151 = assay: microbe, parasite or virus in culture; format: cell-based; details: Pseudomonas aeruginosa, ATCC35151, read-out: Minimum inhibitory concentration, P. aeruginosa ATCC 35151
[1] = tested on: P. aeruginosa (ΔmexAB-oprM); assay: Broth microdilution MIC in iron-depleted CAMHB (IDM); format: cell-based; details: Pseudomonas aeruginosa; iron-depleted CAMHB (IDM); […]; read-out: Minimum inhibitory concentration, P. aeruginosa ΔmexAB-oprM
P. aeruginosa CDC-0054 = assay: microbe, parasite or virus in culture; format: cell-based; details: Pseudomonas aeruginosa, CDC0054, read-out: Minimum inhibitory concentration, P. aeruginosa CDC-0054
P. aeruginosa CDC-0090 = assay: microbe, parasite or virus in culture; format: cell-based; details: Pseudomonas aeruginosa, CDC0090, read-out: Minimum inhibitory concentration, P. aeruginosa CDC-0090
P. aeruginosa CDC-0095 = assay: microbe, parasite or virus in culture; format: cell-based; details: Pseudomonas aeruginosa, CDC0095, read-out: Minimum inhibitory concentration, P. aeruginosa CDC-0095
A. baumannii 1258916 = assay: microbe, parasite or virus in culture; format: cell-based, Acinetobacter baumannii; details: Acinetobacter baumannii, 1258916, read-out: MIC, A. baumannii 1258916
A. baumannii CDC-0033 = assay: microbe, parasite or virus in culture; format: cell-based; details: Acinetobacter baumannii, CDC0033, read-out: MIC, A. baumannii CDC-0033
A. baumannii CDC-0045 = assay: microbe, parasite or virus in culture; format: cell-based; details: Acinetobacter baumannii, CDC0045, read-out: MIC, A. baumannii CDC-0045
A. baumannii CDC-0083 = assay: microbe, parasite or virus in culture; format: cell-based; details: Acinetobacter baumannii, CDC0083, read-out: MIC, A. baumannii CDC-0083
[2] = tested on: B. thailandensis ATCC 700388; assay: microbe, parasite or virus in culture; format: cell-based; details: Burkholderia thailandensis, ATCC700388, read-out: Minimum inhibitory concentration (MIC), B. thailandensis ATCC 700388
[3] = tested on: B. humptydooensis ATCC BAA-2767; assay: microbe, parasite or virus in culture; format: cell-based; details: Burkholderia humptydooensis, ATCCBAA2767, read-out: Minimum inhibitory concentration (MIC), B. humptydooensis ATCC BAA-2767
P. aeruginosa CDC-0110 = assay: microbe, parasite or virus in culture; format: cell-based; details: Pseudomonas aeruginosa, CDC0110, read-out: Minimum inhibitory concentration, P. aeruginosa CDC-0110

Chain of A. baumannii PBP2 (D0C8Z9 whole entry): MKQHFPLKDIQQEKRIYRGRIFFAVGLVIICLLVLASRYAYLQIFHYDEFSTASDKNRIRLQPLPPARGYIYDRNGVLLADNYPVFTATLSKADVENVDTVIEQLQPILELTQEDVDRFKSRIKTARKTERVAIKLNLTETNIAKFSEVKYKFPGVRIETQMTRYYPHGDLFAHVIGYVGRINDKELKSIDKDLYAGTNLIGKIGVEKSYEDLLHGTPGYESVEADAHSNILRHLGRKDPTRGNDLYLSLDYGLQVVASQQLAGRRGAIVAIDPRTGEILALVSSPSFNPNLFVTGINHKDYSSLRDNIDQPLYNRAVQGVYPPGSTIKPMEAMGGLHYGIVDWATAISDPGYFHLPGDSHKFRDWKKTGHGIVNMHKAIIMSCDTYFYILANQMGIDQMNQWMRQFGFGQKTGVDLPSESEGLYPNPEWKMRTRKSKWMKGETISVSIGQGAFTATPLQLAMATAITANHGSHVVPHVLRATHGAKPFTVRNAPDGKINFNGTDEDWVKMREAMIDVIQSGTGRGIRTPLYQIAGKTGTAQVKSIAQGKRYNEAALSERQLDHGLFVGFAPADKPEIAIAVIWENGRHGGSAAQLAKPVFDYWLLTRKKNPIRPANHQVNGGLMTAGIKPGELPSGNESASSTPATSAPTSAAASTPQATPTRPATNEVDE

| SMILES | EC50 (A. baumannii PBP1a) | EC50 (A. baumannii PBP2) | MIC (A. baumannii ATCC 17978) | MIC (A. baumannii ATCC 19606) | MIC (P. aeruginosa ATCC 35151) | MIC [1] | MIC (P. aeruginosa CDC-0054) | MIC (P. aeruginosa CDC-0090) | MIC (P. aeruginosa CDC-0095) | MIC (A. baumannii 1258916) | MIC (A. baumannii CDC-0033) | MIC (A. baumannii CDC-0045) | MIC (A. baumannii CDC-0083) | MIC [2] | MIC [3] | MIC (P. aeruginosa CDC-0110) |
| --- | --- | --- | --- | --- | --- | --- | --- | --- | --- | --- | --- | --- | --- | --- | --- | --- |
| O=C(NCCCN1CCN(C(=O)NC(C(=O)N[C@H]2Cc3ccc(F)c(C(=O)O)c3OB2O)c2cc(F)c(O)c(O)c2Cl)C(=O)C1=O)c1ccc(F)c(O)c1F (stereo partly drawn) [Example 411, (3R)-3-(2-(2-chloro-5-fluoro-3,4-dihydroxyphenyl)-2-(4-(3-(2,4-difluoro-3-hydroxybenzamido)propyl)-2,3-dioxopiperazine-1-carboxamido)acetamido)-7-fluoro-2-hydroxy-3,4-dihydro-2H-benzo[e][1,2]oxaborinine-8-carboxylic acid] | < 10 µM | < 10 µM | < 1 µg/mL | < 1 µg/mL | < 1 µg/mL | < 1 µg/mL | < 1 µg/mL | < 1 µg/mL | < 1 µg/mL | 2 to 4 µg/mL (≈ 2.51 to 5.03 µM) | 8 to 16 µg/mL (≈ 10.1 to 20.1 µM) | 2 to 4 µg/mL (≈ 2.51 to 5.03 µM) | 8 to 16 µg/mL (≈ 10.1 to 20.1 µM) | 2 to 4 µg/mL (≈ 2.51 to 5.03 µM) | 2 to 4 µg/mL (≈ 2.51 to 5.03 µM) | < 1 µg/mL |
| Cc1cnccc1C(=O)NCCCN1CCN(C(=O)NC(C(=O)N[C@H]2Cc3ccc(F)c(C(=O)O)c3OB2O)c2cc(F)c(O)c(O)c2Cl)C(=O)C1=O (stereo partly drawn) [Example 297, (3R)-3-(2-(2-chloro-5-fluoro-3,4-dihydroxyphenyl)-2-(4-(3-(3-methylisonicotinamido)propyl)-2,3-dioxopiperazine-1-carboxamido)acetamido)-7-fluoro-2-hydroxy-3,4-dihydro-2H-benzo[e][1,2]oxaborinine-8-carboxylic acid] | 10 to 50 µM | 10 to 50 µM | < 1 µg/mL | < 1 µg/mL | < 1 µg/mL | < 1 µg/mL | 2 to 4 µg/mL (≈ 2.64 to 5.27 µM) | < 1 µg/mL | < 1 µg/mL | < 1 µg/mL | 2 to 4 µg/mL (≈ 2.64 to 5.27 µM) | < 1 µg/mL | < 1 µg/mL | 2 to 4 µg/mL (≈ 2.64 to 5.27 µM) | < 1 µg/mL | < 1 µg/mL |
| O=C(NCCCN1CCN(C(=O)N[C@@H](C(=O)N[C@H]2Cc3ccc(F)c(C(=O)O)c3OB2O)c2cc(F)c(O)c(O)c2Cl)C(=O)C1=O)c1ccc(O)cc1F (racemic) [Example 417] | 10 to 50 µM | < 10 µM | < 1 µg/mL | < 1 µg/mL | < 1 µg/mL | < 1 µg/mL | 8 to 16 µg/mL (≈ 10.3 to 20.6 µM) | 8 to 16 µg/mL (≈ 10.3 to 20.6 µM) | 8 to 16 µg/mL (≈ 10.3 to 20.6 µM) | < 1 µg/mL | 2 to 4 µg/mL (≈ 2.57 to 5.14 µM) | < 1 µg/mL | > 128 µg/mL | > 128 µg/mL | > 128 µg/mL | 32 to 64 µg/mL (≈ 41.1 to 82.3 µM) |
| O=C(NCCCN1CCN(C(=O)N[C@@H](C(=O)N[C@H]2Cc3ccc(F)c(C(=O)O)c3OB2O)c2cc(F)c(O)c(O)c2Cl)C1=O)Nc1ccc(O)cc1 [Example 284, (R)-3-((R)-2-(2-chloro-5-fluoro-3,4-dihydroxyphenyl)-2-(3-(3-(3-(4-hydroxyphenyl)ureido)propyl)-2-oxoimidazolidine-1-carboxamido)acetamido)-7-fluoro-2-hydroxy-3,4-dihydro-2H-benzo[e][1,2]oxaborinine-8-carboxylic acid] | < 10 µM | < 10 µM | < 1 µg/mL | < 1 µg/mL | < 1 µg/mL | < 1 µg/mL | < 1 µg/mL | < 1 µg/mL | < 1 µg/mL | < 1 µg/mL | < 1 µg/mL | < 1 µg/mL | 2 to 4 µg/mL (≈ 2.68 to 5.36 µM) | < 1 µg/mL | < 1 µg/mL | < 1 µg/mL |
| O=C(NCCCN1CCN(C(=O)NC(C(=O)N[C@H]2Cc3ccc(F)c(C(=O)O)c3OB2O)c2cc(F)c(O)c(O)c2Cl)C1=O)Nc1ccncc1 (stereo partly drawn) [Example 285, (3R)-3-(2-(2-chloro-5-fluoro-3,4-dihydroxyphenyl)-2-(2-oxo-3-(3-(3-(pyridin-4-yl)ureido)propyl)imidazolidine-1-carboxamido)acetamido)-7-fluoro-2-hydroxy-3,4-dihydro-2H-benzo[e][1,2]oxaborinine-8-carboxylic acid] | 10 to 50 µM | 10 to 50 µM | < 1 µg/mL | < 1 µg/mL | < 1 µg/mL | < 1 µg/mL | 8 to 16 µg/mL (≈ 10.9 to 21.9 µM) | 2 to 4 µg/mL (≈ 2.73 to 5.47 µM) | > 128 µg/mL | 2 to 4 µg/mL (≈ 2.73 to 5.47 µM) | 8 to 16 µg/mL (≈ 10.9 to 21.9 µM) | 2 to 4 µg/mL (≈ 2.73 to 5.47 µM) | < 1 µg/mL | 2 to 4 µg/mL (≈ 2.73 to 5.47 µM) | 2 to 4 µg/mL (≈ 2.73 to 5.47 µM) | 8 to 16 µg/mL (≈ 10.9 to 21.9 µM) |
